≈ marks a conversion by molar mass, not a printed value.
Assays:
[1] = system: KB; experiment: Cytotoxicity against human KB cells; assay type: functional; details: read-out: ED50 (the source's name)
[2] = system: L5178Y; experiment: Cytotoxicity against mouse L5178Y cells; assay type: functional; details: read-out: ED50 (the source's name)
[3] = system: Mus musculus; experiment: Toxicity in ddY mouse xenografted with mouse solid Ehrlich carcinoma cells assessed as mortality at 20 mg/kg, ip qd for 3 to 8 days measured after 10 days; assay type: organism-based; design: dose 20 mg/kg, route intraperitoneal; details: in vivo, 240 h
[4] = system: Mus musculus; experiment: Toxicity in ddY mouse xenografted with mouse solid Ehrlich carcinoma cells assessed as mortality at 7 mg/kg, ip qd for 3 to 8 days measured after 10 days; assay type: organism-based; design: dose 7 mg/kg, route intraperitoneal; details: in vivo, 240 h
[5] = Antitumor activity against mouse solid EAC cells xenografted in ddY mouse assessed as tumor weight at 20 mg/kg, ip qd for 3 to 8 days measured after 10 days; assay type: functional, Ehrlich; details: route intraperitoneal
[6] = Antitumor activity against mouse solid EAC cells xenografted in ddY mouse assessed as tumor weight at 7 mg/kg, ip qd for 3 to 8 days measured after 10 days; assay type: functional, Ehrlich; details: route intraperitoneal
[7] = Antitumor activity against mouse solid EAC cells xenografted in ddY mouse at 20 mg/kg, ip qd for 3 to 8 days measured after 10 days relative to control; assay type: functional, Ehrlich; details: route intraperitoneal
[8] = Antitumor activity against mouse solid EAC cells xenografted in ddY mouse at 7 mg/kg, ip qd for 3 to 8 days measured after 10 days relative to control; assay type: functional, Ehrlich; details: route intraperitoneal
[9] = Antitumor activity against mouse EAC cells xenografted in ddY mouse assessed as median survival time at 20 mg/kg, ip qd for 2 to 8 days; assay type: functional, Ehrlich; details: route intraperitoneal
[10] = Antitumor activity against mouse EAC cells xenografted in ddY mouse assessed as median survival time at 7 mg/kg, ip qd for 2 to 8 days; assay type: functional, Ehrlich; details: route intraperitoneal

SMILES	EC50 [1] [µg/mL]	EC50 [2] [µg/mL]	Activity [3]	Activity [4]	Activity [5] [g]	Activity [6] [g]	T/C [7] [%]	T/C [8] [%]	MST [9] [days]	MST [10] [days]
COc1c(C)c(O)c(C(C)=O)c(O)c1Cc1c(O)c(CC=C(C)C)c(O)c(C(C)=O)c1O [MALLOTOJAPONIN]	0.58 (≈ 1.3 µM)	0.74 (≈ 1.66 µM)	Non-toxic	Non-toxic	0.59	0.93	49.5	78.1	14	20
C=C(C)C(O)Cc1c(O)c(Cc2c(O)c(C(C)=O)c(O)c(C)c2OC)c(O)c(C(=O)CCC)c1O (racemic) [MALLOTOLERIN]	0.95 (≈ 1.94 µM)	0.82 (≈ 1.68 µM)								
COc1c(C)c(O)c(C(C)=O)c(O)c1Cc1c(O)c2c(c(C(C)=O)c1O)OC(C)(C)C=C2 [MALLOTOCHROMENE]	2.1 (≈ 4.75 µM)	1.25 (≈ 2.83 µM)								
COc1c(C)c(O)c(C(C)=O)c(O)c1Cc1c(O)c2c(c(C(C)=O)c1O)OC(C)(C)C(O)C2 (racemic) [MALLOTOCHROMANOL]	> 100	> 100								
C=C(C)C(O)Cc1c(O)c(Cc2c(O)c(C(C)=O)c(O)c(C)c2OC)c(O)c(C(C)=O)c1O (racemic)	1.22 (≈ 2.65 µM)	2.45 (≈ 5.32 µM)								

From ChEMBL document CHEMBL1149003, “Studies on cytotoxic constituents in pericarps of Mallotus japonicus, Part II” (J Nat Prod, 1986)
